Data: patent publication US9976141B2, “Compositions and methods for inhibiting gene expression of Hif2alpha” (Arrowhead Madison Inc., priority 2015, dated 2018)

System: human (tumor) Hif2α (EPAS1) mRNA
Assay: Hif2α knockdown in orthotopic RCC tumor bearing mice, single injection of RNAi trigger-delivery polymer conjugate, RT-qPCR (Table 7)
Type: in vivo
Conditions: RNAi trigger 50 μg, polymer 064 125 μg; single tail vein injection; relative to isotonic glucose
Method in brief: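 A single intravenous dose of Hif2α RNAi trigger–delivery polymer conjugate, or isotonic glucose vehicle, was given to nude mice with subcapsular A498-SEAP renal tumours (about 5–6 weeks old). At the indicated time, tumour RNA was assayed by biplex TaqMan qPCR against CycA, and relative expression was calculated by ΔΔCT versus vehicle.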

| Substance | Relative Expression day 4 (Hif2α mRNA in kidney tumor) |
| --- | --- |
| AD02862 (antisense AUUCAUGAAAUCGUUACGUUG; sense UAUACGUAACGAUUUCAUGAAUT; Hif2alpha RNAi agent antisense strand; modified_base 2,4,6,8,10,14,16,18 /mod_base = “2′-deoxy-2′-fluoro corresponding nucleoside”; modified_base 1,3,5,7,9,11,12,13,15,17,19,20,21 /mod_base = “2′-O-methyl corresponding nucleoside”; modified_base 2,3,20,21 /mod_base = “5′-phosphorothioate corresponding nucleotide”; Hif2alpha RNAi agent sense strand; modified_base 2 modified base = “2′-hydroxy corresponding nucleoside”; modified_base 6,8,10,11,12,16,18,20 /mod_base = “2′-deoxy-2′-fluoro corresponding nucleoside”; modified_base 1,3,4,5,7,9,13,14,15,17,19,21,22 /mod_base = “2′-O-methyl correspon) | 0.093 |
| AD02873 (antisense UUUCAUGAAAUCGUUACGUUG; sense UAUACGUAACGAUUUCAUGAAAT; Hif2alpha RNAi agent antisense strand; modified_base 2,4,6,8,10,14,16,18 /mod_base = “2′-deoxy-2′-fluoro corresponding nucleoside”; modified_base 1,3,5,7,9,11,12,13,15,17,19,20,21 /mod_base = “2′-O-methyl corresponding nucleoside”; modified_base 2,3,20,21 /mod_base = “5′-phosphorothioate corresponding nucleotide”; Hif2alpha RNAi agent sense strand; modified_base 2 modified base = “2′-hydroxy corresponding nucleoside”; modified_base 6,8,10,11,12,16,18,20 /mod_base = “2′-deoxy-2′-fluoro corresponding nucleoside”; modified_base 1,3,4,5,7,9,13,14,15,17,19,21,22 /mod_base = “2′-O-methyl correspon) | 0.079 |
| AD02874 (antisense UUUCAUGAAAUCGUUACGUUG; sense UAUACGUAACGAUUUCAUGAAAT; Hif2alpha RNAi agent antisense strand; modified_base 2,4,6,8,10,14,16,18 /mod_base = “2′-deoxy-2′-fluoro corresponding nucleoside”; modified_base 1,3,5,7,9,11,12,13,15,17,19,20,21 /mod_base = “2′-O-methyl corresponding nucleoside”; modified_base 2,3,20,21 /mod_base = “5′-phosphorothioate corresponding nucleotide”; Hif2alpha RNAi agent sense strand; modified_base 2 modified base = “2′-hydroxy corresponding nucleoside”; modified_base 10,11,12,16 /mod_base = “2′-deoxy-2′-fluoro corresponding nucleoside”; modified_base 1,3,4,5,6,7,8,9,13,14,15,17,18,19,20,21,22 /mod_base = “2′-O-methyl correspon) | 0.138 |
| AD02875 (antisense AUUCAUGAAAUCGUUACGUUG; sense UAUACGUAACGAUUUCAUGAAUT; Hif2alpha RNAi agent antisense strand; modified_base 2,4,6,8,10,14,16,18 /mod_base = “2′-deoxy-2′-fluoro corresponding nucleoside”; modified_base 1,3,5,7,9,11,12,13,15,17,19,20,21 /mod_base = “2′-O-methyl corresponding nucleoside”; modified_base 2,3,20,21 /mod_base = “5′-phosphorothioate corresponding nucleotide”; Hif2alpha RNAi agent sense strand; modified_base 2 modified base = “2′-hydroxy corresponding nucleoside”; modified_base 10,11,12,16 /mod_base = “2′-deoxy-2′-fluoro corresponding nucleoside”; modified_base 1,3,4,5,6,7,8,9,13,14,15,17,18,19,20,21,22 /mod_base = “2′-O-methyl correspon) | 0.101 |
| AD02949 (antisense UUUCAUGAAAUCGUUACGUUG; sense ACGUAACGAUUUCAUGAAAT; Hif2alpha RNAi agent antisense strand; modified_base 2,4,6,8,10,14,16,18 /mod_base = “2′-deoxy-2′-fluoro corresponding nucleoside”; modified_base 1,3,5,7,9,11,12,13,15,17,19,20,21 /mod_base = “2′-O-methyl corresponding nucleoside”; modified_base 2,3,20,21 /mod_base = “5′-phosphorothioate corresponding nucleotide”; Hif2alpha RNAi agent sense strand; modified_base 7,9,13 /mod_base = “2′-deoxy-2′-fluoro corresponding nucleoside”; modified_base 1,2,3,4,5,6,8,10,11,12,14,15,16,17,18,19 /mod_base = “2′-O-methyl corresponding nucleoside”; modified_base 20 /mod_base = “3′-3′-linked nucleotide”; modi) | 0.176 |
| AD03011 (antisense UUUCAUGAAAUCGUUACGUUG; sense UAUACGUAACGAUUUCAUGAAAT; Hif2alpha RNAi agent antisense strand; modified_base 2,4,6,8,10,14,16,18 /mod_base = “2′-deoxy-2′-fluoro corresponding nucleoside”; modified_base 1,3,5,7,9,11,12,13,15,17,19,20,21 /mod_base = “2′-O-methyl corresponding nucleoside”; modified_base 2,3,20,21 /mod_base = “5′-phosphorothioate corresponding nucleotide”; Hif2alpha RNAi agent sense strand; modified_base 2 modified base = “2′-hydroxy corresponding nucleoside”; modified_base 10,12,16 /mod_base = “2′-deoxy-2′-fluoro corresponding nucleoside”; modified_base 1,3,4,5,6,7,8,9,11,13,14,15,17,18,19,20,21,22 /mod_base = “2′-O-methyl correspon) | 0.183 |
| AD03187 (antisense UGUAAAACAAUUGUGUACUUU; sense AGUACACAAUUGUUUUACAT; Hif2alpha RNAi agent antisense strand; modified_base 2,4,6,8,10,14,16,18 /mod_base = “2′-deoxy-2′-fluoro corresponding nucleoside”; modified_base 1,3,5,7,9,11,12,13,15,17,19,20,21 /mod_base = “2′-O-methyl corresponding nucleoside”; modified_base 2,3,20,21 /mod_base = “5′-phosphorothioate corresponding nucleotide”; Hif2alpha RNAi agent sense strand; modified_base 3,5,7,8,9,11,13,17 /mod_base = “2′-deoxy-2′-fluoro corresponding nucleoside”; modified_base 1,2,4,6,10,12,14,15,16,18,19 /mod_base = “2′-O-methyl corresponding nucleoside”; modified_base 20 /mod_base = “3′-3′-linked nucleotide”; modi) | 1.000 |
| AD03188 (antisense AGUAAAACAAUUGUGUACUUU; sense AGUACACAAUUGUUUUACUT; Hif2alpha RNAi agent antisense strand; modified_base 2,4,6,8,10,14,16,18 /mod_base = “2′-deoxy-2′-fluoro corresponding nucleoside”; modified_base 1,3,5,7,9,11,12,13,15,17,19,20,21 /mod_base = “2′-O-methyl corresponding nucleoside”; modified_base 2,3,20,21 /mod_base = “5′-phosphorothioate corresponding nucleotide”; Hif2alpha RNAi agent sense strand; modified_base 3,5,7,8,9,11,13,17 /mod_base = “2′-deoxy-2′-fluoro corresponding nucleoside”; modified_base 1,2,4,6,10,12,14,15,16,18,19 /mod_base = “2′-O-methyl corresponding nucleoside”; modified_base 20 /mod_base = “3′-3′-linked nucleotide”; modi) | 0.308 |
| AD03189 (antisense UGUAAAACAAUUGUGUACUUUAA; sense AAAGUACACAAUUGUUUUACA; Hif2alpha RNAi agent antisense strand; modified_base 2,4,6,8,10,14,16,18 /mod_base = “2′-deoxy-2′-fluoro corresponding nucleoside”; modified_base 1,3,5,7,9,11,12,13,15,17,19,20,21,22,23 /mod_base = “2′-O-methyl corresponding nucleoside”; modified_base 2,3,22,23 /mod_base = “5′-phosphorothioate corresponding nucleotide”; Hif2alpha RNAi agent sense strand; modified_base 3,5,7,9,10,11,13,15,19 /mod_base = “2′-deoxy-2′-fluoro corresponding nucleoside”; modified_base 1,2,4,6,8,12,14,16,17,18,20 /mod_base = “2′-O-methyl corresponding nucleoside”; modified_base 21 /mod_base = “3′-3′-linked nucleoti) | 0.245 |
